Source: ChEMBL document CHEMBL1145294, “Genotoxic activity of halogenated phenylglycine derivatives” (Bioorg Med Chem Lett, 2006)
The source made the active and inactive calls. No cut-off for these calls is given here.

Legend:
[1] = test system: MCF7; assay: Cytotoxicity against MCF7 cells; type: cell-based; settings: human
[2] = test system: NCI-H460; assay: Cytotoxicity against NCI-H460 cells; type: cell-based; settings: human
[3] = test system: SF-268; assay: Cytotoxicity against SF268 cells; type: functional, cell-based; settings: Homo sapiens
[4] = test system: Saccharomyces cerevisiae; assay: Cytotoxicity against Saccharomyces cerevisiae rad52; type: organism-based; settings: in vivo
[5] = test system: Saccharomyces cerevisiae; assay: Cytotoxicity against Saccharomyces cerevisiae rad52-ku80; type: organism-based; settings: in vivo
[6] = test system: Saccharomyces cerevisiae; assay: Cytotoxicity against Saccharomyces cerevisiae rad14; type: organism-based; settings: in vivo
[7] = test system: Saccharomyces cerevisiae; assay: Cytotoxicity against Saccharomyces cerevisiae mec1-1; type: organism-based; settings: in vivo
[8] = test system: Saccharomyces cerevisiae; assay: Cytotoxicity against Saccharomyces cerevisiae rad53-11; type: organism-based; settings: in vivo

SMILES	Activity [1]	Activity [2]	Activity [3]	Activity [4]	Activity [5]	Activity [6]	Activity [7]	Activity [8]
COc1ccc(C(O)C(=O)O)cc1I (stereo unspecified)	Not Active	Not Active	inactive	–	–	–	–	–
COC(=O)C(c1ccc(OC)c(I)c1)N1C(=O)c2ccccc2C1=O (stereo unspecified)	Not Active	Not Active	inactive	–	–	–	–	–
COC(=O)Cc1ccc(OC)c(I)c1	Not Active	Not Active	inactive	–	–	–	–	–
COC(=O)Cc1cc(I)c(OC)c(I)c1	Not Active	Not Active	inactive	–	–	–	–	–
COC(=O)C(OC(C)=O)c1ccc(OC)c(I)c1 (stereo unspecified)	Not Active	Not Active	inactive	–	–	–	–	–
COC(=O)C(NC(=O)c1ccccc1)c1ccc(OC)c(I)c1 (stereo unspecified)	Active	Active	Active	Active	Active	Active	Active	Active
COC(=O)C(NC(=O)c1ccccc1)c1ccc(OC)c(Br)c1 (stereo unspecified)	–	–	–	Active	Active	Active	Active	Active
COC(=O)Nc1ccc(C(NC(=O)c2ccccc2)C(=O)O)cc1I (stereo unspecified)	Not Active	Not Active	inactive	–	–	–	–	–
CC(C)(C)[Si](Oc1ccc(C(NC(=O)c2ccccc2)C(=O)O)cc1I)(c1ccccc1)c1ccccc1 (stereo unspecified)	Active	Active	Active	–	–	–	–	–
COC(=O)C(O)c1ccc(OC)c(I)c1 (stereo unspecified)	Not Active	Not Active	inactive	–	–	–	–	–
COC(=O)C(Sc1ccccc1)c1ccc(OC)c(I)c1 (stereo unspecified)	Not Active	Not Active	inactive	–	–	–	–	–
O=C(NC(C(=O)O)c1ccc(O)c(I)c1)c1ccccc1 (stereo unspecified)	Not Active	Not Active	inactive	–	–	–	–	–
COc1ccc(C(OC(C)=O)C(=O)O)cc1I (stereo unspecified)	Not Active	Not Active	inactive	–	–	–	–	–
